Test results as given in patent publication US9670261B2 (Sanofi, priority 2012, dated 2017).
In brackets after ≈: the same amount, converted by molar mass. *1 amine or outer side, *2 acyl side, *3 side chain or, on linkers, in order; H or OH if unused. Where a SMILES comes first, the peptide text is derived from it. Side-chain parts run from the residue outwards. [ ]: non-standard residue; d: D form. The star is where a group is joined. γGlu = O=C(O)[C@H](CCC(=O)[*:2])N[*:1]; Palmitoyl = CCCCCCCCCCCCCCCC(=O)*; Aib = CC(C)(N)C(=O)O

Columns and labels:
human GLP-1 receptor = target: T1, human GLP-1 receptor (Homo sapiens, UniProt P43220); assay: cAMP response (HTRF) of HEK-293 cells stably expressing human GLP-1 receptor; type: cell-based; details: Table 7; cAMP formation; read-out: EC50 hGLP-1 R
T1 construct: expressed in transfected cells
Method: (§1) cAMP content of cells was determined using a kit from Cisbio Corp. (cat. no. 62AM4PEC) based on HTRF (Homogenous Time Resolved Fluorescence). For preparation, cells were split into T175 culture flasks and grown overnight to near confluency in medium (DMEM/10% FBS). Medium was then removed and cells washed with PBS lacking calcium and magnesium, followed by proteinase treatment with accutase (Sigma-Aldrich cat. no. A6964). Detached cells were washed and resuspended in assay buffer (1×HBSS; 20 mM HEPES, 0.1% BSA, 2 mM IBMX) and cellular density determined. They were then diluted to 400000 cells/ml and 25 μl-aliquots dispensed into the wells of 96-well plates. For measurement, 25 μl of test compound in assay buffer was added to the wells, followed by incubation for 30 minutes at room temperature.

human GIP receptor = target: T2, human GIP receptor (Homo sapiens, UniProt P48546); assay: cAMP response (HTRF) of HEK-293 cells stably expressing human GIP receptor; type: cell-based; details: Table 7; cAMP formation; read-out: EC50 hGIP R
T2 construct: expressed in transfected cells
T2 sequence (P48546 22-466): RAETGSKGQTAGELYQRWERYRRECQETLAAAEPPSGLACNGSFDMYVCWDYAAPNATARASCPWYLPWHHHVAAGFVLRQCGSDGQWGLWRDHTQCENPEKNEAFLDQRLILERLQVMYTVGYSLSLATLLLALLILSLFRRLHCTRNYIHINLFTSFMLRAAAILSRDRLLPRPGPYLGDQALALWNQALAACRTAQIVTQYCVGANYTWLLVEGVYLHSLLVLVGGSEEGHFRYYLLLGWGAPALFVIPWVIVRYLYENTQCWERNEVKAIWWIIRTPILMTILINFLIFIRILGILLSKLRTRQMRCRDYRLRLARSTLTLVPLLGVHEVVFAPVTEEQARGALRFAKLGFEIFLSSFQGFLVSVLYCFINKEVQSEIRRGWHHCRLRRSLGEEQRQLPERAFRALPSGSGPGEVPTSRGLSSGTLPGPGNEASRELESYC
Method: as §1

[1] = Pharmacokinetic testing in mice, s.c.; details: mouse, plasma, sc, 1 mg/kg
Method: Mice were dosed 1 mg/kg subcutaneously (s.c.). The mice were sacrified and blood samples were collected after 0.25, 0.5, 1, 2, 4, 8, 16 and 24 hours post application. Plasma samples were analyzed after protein precipitation via liquid chromatography mass spectrometry (LC/MS). PK parameters and half-life were calculated using WinonLin Version 5.2.1 (non-compartment model).

[2] = Solubility testing in buffer (HPLC-UV); details: buffer
[3] = Chemical stability in solution, 7 days at 25° C. (% remaining peptide); details: % remaining peptide after 7 days at 25° C.
Method: After that time course, the sample was centrifuged for 20 min at 4000 rpm and the supernatant was analysed with HPLC-UV. For determination of the amount of the remaining peptide, the peak areas of the target compound at t0 and t7 were compared, resulting in “% remaining peptide”, following the equation % remaining peptide=[(peak area peptide t7)×100]/peak area peptide t0.
The chemical stability is expressed as “% remaining peptide”.

[4] = test system: female leptin-receptor deficient diabetic db/db mice; assay: Blood glucose and HbA1c in leptin-receptor deficient diabetic db/db mice (method 3); type: in vivo; details: single 100 μg/kg s.c., fed db/db mice
Excerpt: Female BKS.Cg-m+/+Leprdb/J (db/db) and BKS.Cg-m+/+Leprdb/+(lean control) mice were obtained from Charles River Laboratories, Germany, at an age of 9-10 weeks. The animals were housed in groups in a specific pathogen-free barrier facility on a 12-h light/dark cycle with free access to water and rodent-standard chow. After 1 week of acclimatization, blood samples were drawn from the tail without anaesthesia and blood glucose (method: d-glucose hexokinase, hemolysate, AU640 Beckman Coulter) and HbA1c level (method: hemolysate, Cobas6000 c501, Roche Diagnostics, Germany) were determined. […] The volume of administration was 5 mL/kg. The animals had access to water and chow during the experiment, food consumption was determined at all time points of blood sampling. […] Blood sampling was performed by tail incision without anaesthesia. […] At the end of the study, blood samples (tail, no anaesthesia) were analyzed for glucose and HbA1c. […] Statistical analyses were performed with Everstat 6.0 by repeated measures two-way ANOVA and Dunnett's post-hoc analyses. Differences versus vehicle-treated db/db control mice were considered statistically significant at the p<0.05 level. […] At predefined time points, more blood samples were taken to measure blood glucose and generate the blood glucose profile over 24 h. […] Blood glucose and HbA1c were determined before start of treatment and at the end of the study after 4 weeks of treatment. […] Before treatment started, no significant differences in blood glucose levels could be detected between db/db groups, only the lean control animals had significant lower glucose levels. During the 4 weeks of treatment, glucose levels increased in the vehicle-treated db/db control group, indicating a worsening of the diabetic situation.

T1 sequence (P43220 24-463): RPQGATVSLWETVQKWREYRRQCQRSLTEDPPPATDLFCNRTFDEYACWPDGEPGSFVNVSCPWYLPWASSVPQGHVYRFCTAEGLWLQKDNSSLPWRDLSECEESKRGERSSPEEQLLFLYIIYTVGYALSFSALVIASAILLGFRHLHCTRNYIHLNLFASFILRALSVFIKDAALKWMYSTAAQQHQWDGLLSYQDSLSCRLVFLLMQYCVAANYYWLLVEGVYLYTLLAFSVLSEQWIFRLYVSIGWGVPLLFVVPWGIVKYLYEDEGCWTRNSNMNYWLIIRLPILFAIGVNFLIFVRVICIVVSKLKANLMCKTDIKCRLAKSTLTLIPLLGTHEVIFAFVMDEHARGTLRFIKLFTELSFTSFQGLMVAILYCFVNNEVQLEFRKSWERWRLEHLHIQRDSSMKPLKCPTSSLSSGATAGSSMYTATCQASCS

CCCCCCCCCCCCCCCC(=O)N[C@@H](CCC(=O)NCCCC[C@H](NC(=O)[C@H](CCC(N)=O)NC(=O)[C@@H](NC(=O)[C@H](CO)NC(=O)[C@H](CC(C)C)NC(=O)[C@H](CC(=O)O)NC(=O)[C@H](CO)NC(=O)[C@@H](NC(=O)[C@H](Cc1ccccc1)NC(=O)[C@@H](NC(=O)CNC(=O)[C@H](CCC(=O)O)NC(=O)C(C)(C)NC(=O)[C@@H](N)Cc1ccc(O)cc1)[C@@H](C)O)[C@@H](C)O)[C@@H](C)CC)C(=O)N[C@@H](CCC(=O)O)C(=O)N[C@@H](CCCCN)C(=O)N[C@@H](CCCNC(=N)N)C(=O)N[C@@H](C)C(=O)N[C@@H](C)C(=O)NC(C)(C)C(=O)N[C@@H](CC(=O)O)C(=O)N[C@@H](Cc1ccccc1)C(=O)N[C@H](C(=O)N[C@@H](CCC(=O)O)C(=O)N[C@@H](Cc1c[nH]c2ccccc12)C(=O)N[C@@H](CC(C)C)C(=O)N[C@@H](CCCCN)C(=O)N[C@@H](CC(N)=O)C(=O)N[C@H](C(=O)NCC(=O)N1CCC[C@H]1C(=O)N[C@@H](CO)C(=O)N[C@@H](CO)C(=O)NCC(=O)N[C@@H](C)C(=O)N1CCC[C@H]1C(=O)N1CCC[C@H]1C(=O)N1CCC[C@H]1C(=O)N[C@@H](CO)C(N)=O)[C@@H](C)O)[C@@H](C)CC)C(=O)O [SEQ ID NO: 27, Y-Aib-E-G-T-F-T-S-D-L-S-I-Q-K(γE-x53)-E-K-R-A-A-Aib-D-F-I-E-W-L-K-N-T-G-P-S-S-G-A-P-P-P-S-NH2] (H-Y[Aib]EGTFTSDLSIQK([γGlu-Palmitoyl])EKRAA[Aib]DFIEWLKNTGPSSGAPPPS-NH2)
EC50 (human GLP-1 receptor): 4 pM | EC50 (human GIP receptor): 6.7 pM

CCCCCCCCCCCCCCCC(=O)N[C@@H](CCC(=O)NCCCC[C@H](NC(=O)[C@H](CCC(N)=O)NC(=O)[C@@H](NC(=O)[C@H](CO)NC(=O)[C@H](CC(C)C)NC(=O)[C@H](CC(=O)O)NC(=O)[C@H](CO)NC(=O)[C@@H](NC(=O)[C@H](Cc1ccccc1)NC(=O)[C@@H](NC(=O)CNC(=O)[C@H](CCC(N)=O)NC(=O)C(C)(C)NC(=O)[C@@H](N)Cc1ccc(O)cc1)[C@@H](C)O)[C@@H](C)O)[C@@H](C)CC)C(=O)N[C@@H](CCC(=O)O)C(=O)N[C@@H](CCCCN)C(=O)N[C@@H](CCCNC(=N)N)C(=O)N[C@@H](C)C(=O)N[C@@H](C)C(=O)NC(C)(C)C(=O)N[C@@H](CCC(=O)O)C(=O)N[C@@H](Cc1ccccc1)C(=O)N[C@H](C(=O)N[C@@H](CCC(=O)O)C(=O)N[C@@H](Cc1c[nH]c2ccccc12)C(=O)N[C@@H](CC(C)C)C(=O)N[C@@H](CCCCN)C(=O)N[C@@H](CC(N)=O)C(=O)N[C@H](C(=O)NCC(=O)N1CCC[C@H]1C(=O)N[C@@H](CO)C(=O)N[C@@H](CO)C(=O)NCC(=O)N[C@@H](C)C(=O)N1CCC[C@H]1C(=O)N1CCC[C@H]1C(=O)N1CCC[C@H]1C(=O)N[C@@H](CO)C(N)=O)[C@@H](C)O)[C@@H](C)CC)C(=O)O [SEQ ID NO: 8, Y-Aib-Q-G-T-F-T-S-D-L-S-I-Q-K(γE-x53)-E-K-R-A-A-Aib-E-F-I-E-W-L-K-N-T-G-P-S-S-G-A-P-P-P-S-NH2] (H-Y[Aib]QGTFTSDLSIQK([γGlu-Palmitoyl])EKRAA[Aib]EFIEWLKNTGPSSGAPPPS-NH2)
EC50 (human GLP-1 receptor): 5.3 pM | Cmax [1]: 3740 ng/mL | half-life [1]: 3.4 h | solubility at 2 h ([2]; pH 4.5): > 1000 µg/mL | solubility at 2 h ([2]; pH 7.4): 972 µg/mL (≈ 212 µM) | Stability (pH 4.5) ([3]; pH 4.5): 98.0% | Stability (pH 7.4) ([3]; pH 7.4): 98.0%

CCCCCCCCCCCCCCCC(=O)N[C@@H](CCC(=O)NCCCC[C@H](NC(=O)[C@H](CCC(N)=O)NC(=O)[C@@H](NC(=O)[C@H](CO)NC(=O)[C@H](CC(C)C)NC(=O)[C@H](CC(=O)O)NC(=O)[C@H](CO)NC(=O)[C@@H](NC(=O)[C@H](Cc1ccccc1)NC(=O)[C@@H](NC(=O)CNC(=O)[C@H](CCC(=O)O)NC(=O)C(C)(C)NC(=O)[C@@H](N)Cc1ccc(O)cc1)[C@@H](C)O)[C@@H](C)O)[C@@H](C)CC)C(=O)N[C@@H](CCC(=O)O)C(=O)N[C@@H](CCCCN)C(=O)N[C@@H](CCCNC(=N)N)C(=O)N[C@@H](C)C(=O)N[C@@H](C)C(=O)NC(C)(C)C(=O)N[C@@H](CCC(=O)O)C(=O)N[C@@H](Cc1ccccc1)C(=O)N[C@H](C(=O)N[C@@H](CCC(=O)O)C(=O)N[C@@H](Cc1c[nH]c2ccccc12)C(=O)N[C@@H](CC(C)C)C(=O)N[C@@H](CCCCN)C(=O)N[C@@H](C)C(=O)NCC(=O)NCC(=O)N1CCC[C@H]1C(=O)N[C@@H](CO)C(=O)N[C@@H](CO)C(=O)NCC(=O)N[C@@H](C)C(=O)N1CCC[C@H]1C(=O)N1CCC[C@H]1C(=O)N1CCC[C@H]1C(=O)N[C@@H](CO)C(N)=O)[C@@H](C)CC)C(=O)O [SEQ ID NO: 36, Y-Aib-E-G-T-F-T-S-D-L-S-I-Q-K(γE-x53)-E-K-R-A-A-Aib-E-F-I-E-W-L-K-A-G-G-P-S-S-G-A-P-P-P-S-NH2] (H-Y[Aib]EGTFTSDLSIQK([γGlu-Palmitoyl])EKRAA[Aib]EFIEWLKAGGPSSGAPPPS-NH2)
EC50 (human GIP receptor): 6.4 pM

CCCCCCCCCCCCCCCC(=O)N[C@@H](CCC(=O)NCCCC[C@H](NC(=O)[C@H](CCC(N)=O)NC(=O)[C@@H](NC(=O)[C@H](CO)NC(=O)[C@H](CC(C)C)NC(=O)[C@H](CC(=O)O)NC(=O)[C@H](CO)NC(=O)[C@@H](NC(=O)[C@H](Cc1ccccc1)NC(=O)[C@@H](NC(=O)CNC(=O)[C@H](CCC(=O)O)NC(=O)C(C)(C)NC(=O)[C@@H](N)Cc1ccc(O)cc1)[C@@H](C)O)[C@@H](C)O)[C@@H](C)CC)C(=O)N[C@@H](CCC(=O)O)C(=O)N[C@@H](CO)C(=O)N[C@@H](CCCNC(=N)N)C(=O)N[C@@H](C)C(=O)N[C@@H](C)C(=O)N[C@@H](CCC(N)=O)C(=O)N[C@@H](CC(=O)O)C(=O)N[C@@H](Cc1ccccc1)C(=O)N[C@H](C(=O)N[C@@H](CCC(=O)O)C(=O)N[C@@H](Cc1c[nH]c2ccccc12)C(=O)N[C@@H](CC(C)C)C(=O)N[C@@H](CCCCN)C(=O)N[C@@H](C)C(=O)NCC(=O)NCC(=O)N1CCC[C@H]1C(=O)N[C@@H](CO)C(=O)N[C@@H](CO)C(=O)NCC(=O)N[C@@H](C)C(=O)N1CCC[C@H]1C(=O)N1CCC[C@H]1C(=O)N1CCC[C@H]1C(=O)N[C@@H](CO)C(N)=O)[C@@H](C)CC)C(=O)O [SEQ ID NO: 10, Y-Aib-E-G-T-F-T-S-D-L-S-I-Q-K(γE-x53)-ESRAAQDFIEWLKAGGPSSGAPPPS-NH2] (H-Y[Aib]EGTFTSDLSIQK([γGlu-Palmitoyl])ESRAAQDFIEWLKAGGPSSGAPPPS-NH2)
blood glucose compared to db/db control mice, 24 h profile [4]: significant decrease in blood glucose | Cmax [1]: 5820 ng/mL | half-life [1]: 2.7 h
